# Measurements from ChEMBL document CHEMBL5665443, “Enzyme Inhibitor Single Concentration assay results for EUbOPEN Chemogenomics Library” (2024).
# Assays:
# Settings in all cases: Hit No
# [1] = biological target: T1, Endonuclease III-like protein 1 (Homo sapiens) (UniProt P78549);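 note: enzyme assay tracking NTHL1 cutting and release of a quenched double-stranded DNA oligo substrate, read as fluorescence at 594 nm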
# T1 sequence (whole entry): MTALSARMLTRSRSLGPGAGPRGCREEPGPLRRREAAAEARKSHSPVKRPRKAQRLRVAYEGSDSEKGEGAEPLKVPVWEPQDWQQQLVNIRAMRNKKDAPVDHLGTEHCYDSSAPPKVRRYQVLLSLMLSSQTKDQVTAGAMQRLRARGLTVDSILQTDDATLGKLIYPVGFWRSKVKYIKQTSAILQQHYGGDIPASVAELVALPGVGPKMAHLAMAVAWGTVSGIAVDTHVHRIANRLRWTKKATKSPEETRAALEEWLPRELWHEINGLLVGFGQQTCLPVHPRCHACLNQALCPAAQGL
# Description: Inhibition of NTHL1 by quantifying inhibition of NTHL1-mediated cleavage and dissociation of quenched duplex DNA oligonucleotides, measured as fluorescence at 594 nm.
# [2] = biological target: T2, Endonuclease 8-like 2 (Homo sapiens) (UniProt Q969S2);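 note: fluorescence at 594 nm reports NEIL2 cutting and release of a quenched double-stranded DNA oligo substrate, reduced signal read as inhibition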
# T2 sequence (whole entry): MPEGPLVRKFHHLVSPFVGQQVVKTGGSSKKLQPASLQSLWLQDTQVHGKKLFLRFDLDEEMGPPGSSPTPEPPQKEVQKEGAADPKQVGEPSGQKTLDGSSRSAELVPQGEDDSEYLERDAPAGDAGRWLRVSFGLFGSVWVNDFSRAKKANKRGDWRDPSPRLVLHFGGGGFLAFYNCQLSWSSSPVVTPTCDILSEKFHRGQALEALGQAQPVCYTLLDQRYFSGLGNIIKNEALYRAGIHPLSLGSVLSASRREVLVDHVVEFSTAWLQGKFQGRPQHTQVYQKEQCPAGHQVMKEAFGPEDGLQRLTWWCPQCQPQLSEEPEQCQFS
# Description: Inhibition of NEIL2 by quantifying inhibition of NEIL2-mediated cleavage and dissociation of quenched duplex DNA oligonucleotides, measured as fluorescence at 594 nm.
# [3] = biological target: G/T mismatch-specific thymine DNA glycosylase (Homo sapiens) (UniProt Q13569);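 note: human TDG cleavage of quenched duplex DNA oligonucleotides coupled to APE1, strand release read as fluorescence at 594 nm, inhibition of TDG activity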
# Description: Inhibition of TDG by quantifying inhibition of TDG-mediated cleavage and dissociation of quenched duplex DNA oligonucleotides, measured as fluorescence at 594 nm. To generate a functional strand incision and increase turn-over this assay is coupled to APE1.
# [4] = biological target: T3, Single-strand selective monofunctional uracil DNA glycosylase (Homo sapiens) (UniProt Q53HV7);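 note: enzymatic SMUG1 assay coupled with APE1, reading fluorescence at 594 nm released when a quenched double-stranded DNA oligonucleotide substrate is cleaved and separated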
# T3 sequence (whole entry): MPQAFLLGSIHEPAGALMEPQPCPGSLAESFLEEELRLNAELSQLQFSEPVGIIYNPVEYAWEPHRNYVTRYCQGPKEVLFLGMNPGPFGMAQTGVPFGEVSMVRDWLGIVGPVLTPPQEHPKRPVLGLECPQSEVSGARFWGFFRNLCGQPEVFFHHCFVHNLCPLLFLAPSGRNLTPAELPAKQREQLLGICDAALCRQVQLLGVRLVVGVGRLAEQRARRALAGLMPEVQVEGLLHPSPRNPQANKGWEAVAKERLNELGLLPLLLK
# Description: Inhibition of SMUG1 by quantifying inhibition of SMUG1-mediated cleavage and dissociation of quenched duplex DNA oligonucleotides, measured as fluorescence at 594 nm. To generate a functional strand incision and increase turn-over this assay is coupled to APE1.
# [5] = biological target: Endonuclease 8-like 1 (Homo sapiens) (UniProt Q96FI4);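 note: fluorescence at 594 nm from quenched duplex DNA oligonucleotides released by NEIL1 cleavage and strand separation, reported as reduction of this enzyme activity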
# Description: Inhibition of NEIL1 by quantifying inhibition of NEIL1-mediated cleavage and dissociation of quenched duplex DNA oligonucleotides, measured as fluorescence at 594 nm.
# [6] = biological target: N-glycosylase/DNA lyase (Homo sapiens) (UniProt O15527);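 note: OGG1 cleavage of a quenched duplex DNA oligonucleotide, coupled to APE1 for strand incision, read as fluorescence at 594 nm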
# Description: Inhibition of OGG1 by quantifying inhibition of OGG1-mediated cleavage and dissociation of quenched duplex DNA oligonucleotides, measured as fluorescence at 594 nm. To generate a functional strand incision and increase turn-over this assay is coupled to APE1.
# [7] = biological target: Uracil-DNA glycosylase (Homo sapiens) (UniProt P13051);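 note: UNG excision on a quenched double-stranded DNA oligo probe, with APE1 added for strand incision and turnover, read as fluorescence at 594 nm as strands separate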
# Sequence of Uracil-DNA glycosylase (Homo sapiens) (P13051 whole entry): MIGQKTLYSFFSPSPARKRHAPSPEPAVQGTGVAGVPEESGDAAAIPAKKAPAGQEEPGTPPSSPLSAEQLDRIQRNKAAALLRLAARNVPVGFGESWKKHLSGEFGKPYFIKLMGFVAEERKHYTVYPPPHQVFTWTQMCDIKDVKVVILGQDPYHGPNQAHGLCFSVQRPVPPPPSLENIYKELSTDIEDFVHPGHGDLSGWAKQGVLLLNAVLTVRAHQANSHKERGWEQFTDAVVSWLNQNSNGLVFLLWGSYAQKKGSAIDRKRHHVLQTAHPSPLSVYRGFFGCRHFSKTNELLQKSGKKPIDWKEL
# Description: Inhibition of UNG by quantifying inhibition of UNG-mediated cleavage and dissociation of quenched duplex DNA oligonucleotides, measured as fluorescence at 594 nm. To generate a functional strand incision and increase turn-over this assay is coupled to APE1.
# Sequence of G/T mismatch-specific thymine DNA glycosylase (Homo sapiens) (Q13569 whole entry): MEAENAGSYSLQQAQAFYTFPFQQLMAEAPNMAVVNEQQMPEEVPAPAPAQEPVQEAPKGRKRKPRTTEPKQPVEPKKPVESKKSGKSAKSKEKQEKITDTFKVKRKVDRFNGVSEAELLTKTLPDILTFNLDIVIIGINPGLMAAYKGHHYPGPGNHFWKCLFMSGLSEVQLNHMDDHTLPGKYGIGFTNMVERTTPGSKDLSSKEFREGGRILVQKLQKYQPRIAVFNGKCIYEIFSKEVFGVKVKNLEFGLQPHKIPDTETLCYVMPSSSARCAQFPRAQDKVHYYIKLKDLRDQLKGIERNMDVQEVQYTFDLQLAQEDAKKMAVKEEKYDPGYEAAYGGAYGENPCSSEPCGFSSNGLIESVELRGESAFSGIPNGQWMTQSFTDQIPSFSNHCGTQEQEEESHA
# Sequence of Endonuclease 8-like 1 (Homo sapiens) (Q96FI4 whole entry): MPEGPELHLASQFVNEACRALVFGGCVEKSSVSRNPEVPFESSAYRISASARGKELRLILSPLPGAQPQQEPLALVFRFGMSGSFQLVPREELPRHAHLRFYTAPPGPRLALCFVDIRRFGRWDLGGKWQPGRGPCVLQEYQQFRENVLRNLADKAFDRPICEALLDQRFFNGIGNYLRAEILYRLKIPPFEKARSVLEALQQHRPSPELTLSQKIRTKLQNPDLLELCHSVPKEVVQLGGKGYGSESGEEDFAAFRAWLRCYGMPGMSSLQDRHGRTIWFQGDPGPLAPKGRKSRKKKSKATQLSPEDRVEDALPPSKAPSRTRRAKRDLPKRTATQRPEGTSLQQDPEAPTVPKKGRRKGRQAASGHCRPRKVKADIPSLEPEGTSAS
# Sequence of N-glycosylase/DNA lyase (Homo sapiens) (O15527 whole entry): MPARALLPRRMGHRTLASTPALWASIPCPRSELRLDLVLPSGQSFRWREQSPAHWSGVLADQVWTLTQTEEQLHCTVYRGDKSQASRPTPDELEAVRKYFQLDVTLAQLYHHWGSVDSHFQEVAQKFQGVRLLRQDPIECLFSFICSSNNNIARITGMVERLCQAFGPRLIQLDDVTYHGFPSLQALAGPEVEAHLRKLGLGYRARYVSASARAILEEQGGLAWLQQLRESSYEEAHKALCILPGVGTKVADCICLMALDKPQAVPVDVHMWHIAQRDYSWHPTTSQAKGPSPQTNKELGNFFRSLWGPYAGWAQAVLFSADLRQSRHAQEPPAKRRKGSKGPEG
SMILES,inhibition ([1]; Compound Concentration 10.0 uM),inhibition ([2]; Compound Concentration 10.0 uM),inhibition ([3]; Compound Concentration 10.0 uM),inhibition ([4]; Compound Concentration 10.0 uM),inhibition ([5]; Compound Concentration 10.0 uM),inhibition ([6]; Compound Concentration 10.0 uM),inhibition ([1]; Compound Concentration 1.0 uM),inhibition ([7]; Compound Concentration 1.0 uM),inhibition ([3]; Compound Concentration 1.0 uM),inhibition ([4]; Compound Concentration 1.0 uM),inhibition ([7]; Compound Concentration 10.0 uM),inhibition ([2]; Compound Concentration 1.0 uM),inhibition ([5]; Compound Concentration 1.0 uM),inhibition ([6]; Compound Concentration 1.0 uM)
C[C@@H](NCCCc1cccc(C(F)(F)F)c1)c1cccc2ccccc12,-5.41%,13.5%,-8.6%,8.59%,1.28%,-4.37%,–,–,–,–,–,–,–,–
CCCCCCCCc1ccc(CCC(N)(CO)CO)cc1,-6.87%,-1.98%,26.4%,1.32%,4.69%,-9.6%,–,–,–,–,–,–,–,–
CCOc1cc2ncc(C#N)c(Nc3ccc(OCc4cccc(F)c4)c(Cl)c3)c2cc1NC(=O)/C=C/CN(C)C,–,–,–,–,–,–,-5.49%,3.4%,25.8%,11.5%,–,–,–,–
CC(C)(N)C(=O)N[C@H](COCc1ccccc1)C(=O)N1CCC2(CC1)CN(S(C)(=O)=O)c1ccccc12,-1.74%,7%,6.18%,-6.91%,7.36%,–,–,–,–,–,-9.48%,–,–,–
CN1C(=O)[C@@H](NC(=O)c2cc3ccccc3[nH]2)N=C(c2ccccc2)c2ccccc21,22.4%,–,4.69%,-0.954%,–,-4.56%,–,–,–,–,-5.09%,–,–,–
Cc1cn2cc(CC(=O)N3CCC4(CC3)CN(Cc3ccc(-n5nccn5)cc3Cl)C4)nc2s1,6.32%,–,-1.26%,-0.227%,-6.88%,-2.88%,–,–,–,–,–,–,–,–
N=C(N)NCCC[C@H](NC(=O)C12CC3CC(CC(C3)C1)C2)C(=O)N[C@@H](Cc1ccccc1)C(N)=O,13.8%,-4.94%,–,-6%,4.9%,–,–,–,–,–,-7.87%,–,–,–
O=C(N[C@H](Cc1ccc(Cl)cc1)C(=O)N1CCC(Cn2cncn2)(C2CCCCC2)CC1)[C@H]1Cc2ccccc2CN1,-6.04%,0.159%,–,10.8%,5.49%,6.85%,–,–,–,–,-1.71%,–,–,–
Cn1cc(C2=C(c3cn(C4CCN(Cc5ccccn5)CC4)c4ccccc34)C(=O)NC2=O)c2ccccc21,–,–,–,–,–,–,2.88%,-3.81%,–,6.08%,–,-6.23%,-7.52%,-2.56%
O=C(Nc1ccc(-n2nc(C(F)(F)F)cc2C(F)(F)F)cc1)c1ccncc1F,-4.39%,-8.25%,–,-4.65%,3.86%,-5.81%,–,–,–,–,-0.503%,–,–,–
O=C(NCc1ccc(F)cc1)N1CCN2C(=O)OC(c3ccccc3)(c3ccccc3)C2C1 (stereo unspecified),-0.275%,9.75%,6.86%,10.1%,-1.09%,1.66%,–,–,–,–,–,–,–,–
Cc1ccc(F)cc1C(=O)Nc1ccc(C(=O)N2Cc3cccn3Cc3ccccc32)c(Cl)c1,18.1%,-4.48%,-0.756%,-2.41%,-2.72%,-6.45%,–,–,–,–,–,–,–,–
C=CCN1C[C@H](C)N([C@H](c2ccc(C(=O)N(CC)CC)cc2)c2cccc(O)c2)C[C@H]1C,1.92%,6.25%,4.87%,10.6%,-6.58%,-6.71%,–,–,–,–,–,–,–,–
CN(c1ncccc1CNc1ccnc(-c2cc3cc(Cl)ccc3[nH]2)n1)S(C)(=O)=O,-4.79%,1.85%,37.5%,14.4%,8.2%,–,–,–,–,–,1.54%,–,–,–
Cc1ccccc1N1CCN(S(=O)(=O)C[C@]23CC[C@H](C[C@@H]2NC(=O)[C@@H](N)CCS(C)(=O)=O)C3(C)C)CC1,20.2%,-8.47%,-7.58%,–,10.9%,-1.3%,–,–,–,–,-9.38%,–,–,–
FC(F)c1nc2ccccc2n1-c1nc(N2CCOCC2)nc(N2CCOCC2)n1,7.06%,–,32.9%,27%,–,3.08%,–,–,–,–,-3.48%,–,–,–
N#Cc1cc2c(OCC(O)CN3CCN(C(c4ccccc4)c4ccccc4)CC3)cccc2[nH]1 (racemic),-4.67%,-1.98%,-7.45%,–,7.06%,-4.64%,–,–,–,–,-9.6%,–,–,–
